Experimental data: patent US4670461A, “Formaldehyde derivatives of mitindomide” (priority 1984, dated 1987)
Structures can show the parent of a compound that is named as a salt.

Key:
[1] = background section; cited from earlier work
L1210 leukemia [2] = test: IP implanted L1210 leukemia in mice (CD2F1); type: in vivo
[3] = system: certain experimental tumor systems; details: Pettit et al, Can. J. Chem. 61, 2291-2294 (1983); cited from earlier work
L1210 leukemia [4] = test: S.C. implanted L1210 leukemia in mice (CD2F1); type: in vivo
Description: ^a Experimental formulation of mitindomide was used (NaOH + manitol).

Water solubility = type: physicochemical; details: water
P388 = test: IP P388, Days 1-9 (NCI murine test system); type: in vivo; details: IP P388, Days 1-9, dose 68.8
Description: Anti-tumor or anti-neoplastic activity of the novel derivatives of the present invention is determined by using the murine test system for screening anti-cancer compounds as standardized by the National Cancer Institute, Bethesda, Md., U.S.A., and described in Cancer Chemotherapy Reports, 3 (2) 1-103 (1972) which publication is incorporated herein by reference.
It is noted that although the intraperitoneal mode of administration of the novel derivatives is preferred, other modes of parenteral administration, e.g. subcutaneous, intravenous, etc., are, of course, possible and included within the purview of this invention. Similarly, although water has been used as a vehicle for the administration of the compounds of the present invention, other pharmaceutically acceptable vehicles, e.g. saline, buffers, and other aqueous media may also be used for the administration of these compounds together with adjuvants, agents or additives commonly employed in the preparation of pharmaceutical compositions. Examples of such agents, additives and adjuvants that may be employed are listed in Instruction 14, Screening Data Summary Interpretation and Outline of Clinical Screen. Drug Evaluation Branch, NCI. and are incorporated herein by reference.

[5] = 18.0 mg/kg IP days 1-9, Expt. 1
[6] = 18.0 mg/kg IP days 1-9, Expt. 2
[7] = 18.0 mg/kg IP days 1-9, Expt. 3
[8] = 30.0 mg/kg IP days 1-9, Expt. 1
[9] = 30.0 mg/kg IP days 1-9, Expt. 2
[10] = 30.0 mg/kg IP days 1-9, Expt. 3
[11] = 50.0 mg/kg IP days 1-9, Expt. 1
[12] = 50.0 mg/kg IP days 1-9, Expt. 2
[13] = 50.0 mg/kg IP days 1-9, Expt. 3
[14] = 83.3 mg/kg IP days 1-9, Expt. 1
[15] = 83.3 mg/kg IP days 1-9, Expt. 2
[16] = 83.3 mg/kg IP days 1-9, Expt. 3
[17] = 18.0 mg/kg ip days 1-9, Expt. 1
[18] = 18.0 mg/kg ip days 1-9, Expt. 2
[19] = 30.0 mg/kg ip days 1-9, Expt. 1
[20] = 30.0 mg/kg ip days 1-9, Expt. 2
[21] = 50.0 mg/kg ip days 1-9, Expt. 1
[22] = 50.0 mg/kg ip days 1-9, Expt. 2
[23] = 83.3 mg/kg ip days 1-9, Expt. 1
[24] = 24.8 mg/kg IP days 1-9, Expt. 1
[25] = 24.8 mg/kg IP days 1-9, Expt. 2
[26] = 24.8 mg/kg IP days 1-9, Expt. 3
[27] = 41.3 mg/kg IP days 1-9, Expt. 1
[28] = 41.3 mg/kg IP days 1-9, Expt. 2
[29] = 41.3 mg/kg IP days 1-9, Expt. 3
[30] = 68.8 mg/kg IP days 1-9, Expt. 1
[31] = 68.8 mg/kg IP days 1-9, Expt. 2
[32] = 68.8 mg/kg IP days 1-9, Expt. 3
[33] = 114.7 mg/kg IP days 1-9, Expt. 1
[34] = 114.7 mg/kg IP days 1-9, Expt. 2
[35] = 114.7 mg/kg IP days 1-9, Expt. 3
[36] = 24.8 mg/kg ip days 1-9, Expt. 1
[37] = 24.8 mg/kg ip days 1-9, Expt. 2
[38] = 41.3 mg/kg ip days 1-9, Expt. 1
[39] = 41.3 mg/kg ip days 1-9, Expt. 2
[40] = 68.8 mg/kg ip days 1-9, Expt. 1
[41] = 68.8 mg/kg ip days 1-9, Expt. 2
[42] = 114.7 mg/kg ip days 1-9, Expt. 1

In the case of `O=C1NC(=O)[C@H]2[C@H]3C=C[C@@H]([C@@H]12)[C@@H]1[C@H]2C(=O)NC(=O)[C@H]2[C@H]31` [Mitindomide, 4,8-Ethenopyrrolo[3',4':3,4]cyclobut[1,2-f]-isoindole-1,3,5,7(2H,6H) tetrone, octahydro], the solubility in water [1] is listed as “virtually insoluble in water”, the ILS (L1210 leukemia [2]; [5]) is listed as 3% and the MST (L1210 leukemia [2]; [5]) is listed as 9.0 days. The “Wt. Change” value (L1210 leukemia [2]; [5]) was 2.3 g, the ILS (L1210 leukemia [2]; [6]) was 10% and the MST (L1210 leukemia [2]; [6]) was 8.8 days. For the same compound, the “Wt. Change” value (L1210 leukemia [2]; [6]) was -0.7 g, the ILS (L1210 leukemia [2]; [7]) was 13% and the MST (L1210 leukemia [2]; [7]) was 9.3 days. For the same compound, the “Wt. Change” value (L1210 leukemia [2]; [7]) was 0.3 g, the ILS (L1210 leukemia [2]; [8]) was 49% and the MST (L1210 leukemia [2]; [8]) was 13.0 days. The “Wt. Change” value (L1210 leukemia [2]; [8]) was 1.2 g, the ILS (L1210 leukemia [2]; [9]) was 66% and the MST (L1210 leukemia [2]; [9]) was 13.3 days. The “Wt. Change” value (L1210 leukemia [2]; [9]) was -3.1 g, the ILS (L1210 leukemia [2]; [10]) was 86% and the MST (L1210 leukemia [2]; [10]) was 15.3 days. The “Wt. Change” value (L1210 leukemia [2]; [10]) was -2.2 g, the ILS (L1210 leukemia [2]; [11]) was 60% and the MST (L1210 leukemia [2]; [11]) was 14.0 days. The “Wt. Change” value (L1210 leukemia [2]; [11]) was 0.2 g, the ILS (L1210 leukemia [2]; [12]) was 103% and the MST (L1210 leukemia [2]; [12]) was 16.3 days. The “Wt. Change” value (L1210 leukemia [2]; [12]) was -3.9 g, the ILS (L1210 leukemia [2]; [13]) was 156% and the MST (L1210 leukemia [2]; [13]) was 21.0 days. The “Wt. Change” value (L1210 leukemia [2]; [13]) was -2.8 g, the ILS (L1210 leukemia [2]; [14]) was 6% and the MST (L1210 leukemia [2]; [14]) was 9.3 days. The “Wt. Change” value (L1210 leukemia [2]; [14]) was -2.5 g, the ILS (L1210 leukemia [2]; [15]) was 12% and the MST (L1210 leukemia [2]; [15]) was 9.0 days. For the same compound, the “Wt. Change” value (L1210 leukemia [2]; [15]) was -5.8 g, the ILS (L1210 leukemia [2]; [16]) was -3% and the MST (L1210 leukemia [2]; [16]) was 8.0 days. The “Wt. Change” value (L1210 leukemia [2]; [16]) was -4.5 g, the “Wt. Change” value (L1210 leukemia [2]; 138.9 mg/kg IP days 1-9, Expt. 1) was -5.6 g and the “Wt. Change” value (L1210 leukemia [2]; 138.9 mg/kg IP days 1-9, Expt. 3) was -5.5 g. For the same compound, the “inhibitory activity against certain experimental tumor systems” value [3] was “strong inhibitory activity”, the ILS (L1210 leukemia [4]; [17]) was 21% and the MST (L1210 leukemia [4]; [17]) was 10.0 days. For the same compound, the “Wt. Change” value (L1210 leukemia [4]; [17]) was 0.0 g, the ILS (L1210 leukemia [4]; [18]) was 12% and the MST (L1210 leukemia [4]; [18]) was 12.0 days. The “Wt. Change” value (L1210 leukemia [4]; [18]) was -0.1 g, the ILS (L1210 leukemia [4]; [19]) was 50% and the MST (L1210 leukemia [4]; [19]) was 12.3 days. For the same compound, the “Wt. Change” value (L1210 leukemia [4]; [19]) was -3.8 g, the ILS (L1210 leukemia [4]; [20]) was 42% and the MST (L1210 leukemia [4]; [20]) was 15.3 days. For the same compound, the “Wt. Change” value (L1210 leukemia [4]; [20]) was -1.6 g, the ILS (L1210 leukemia [4]; [21]) was 92% and the MST (L1210 leukemia [4]; [21]) was 15.8 days. The “Wt. Change” value (L1210 leukemia [4]; [21]) was -4.3 g, the ILS (L1210 leukemia [4]; [22]) was 136% and the MST (L1210 leukemia [4]; [22]) was 25.3 days. The “Wt. Change” value (L1210 leukemia [4]; [22]) was -4.2 g, the ILS (L1210 leukemia [4]; [23]) was 6% and the MST (L1210 leukemia [4]; [23]) was 8.7 days. The “Wt. Change” value (L1210 leukemia [4]; [23]) was -5.6 g and the “Wt. Change” value (L1210 leukemia [4]; 83.3 mg/kg ip days 1-9, Expt. 2) was -5.6 g.
With `CN1CCN(CN2C(=O)C3C4C=CC(C3C2=O)C2C3C(=O)N(CN5CCN(C)CC5)C(=O)C3C42)CC1` (stereo not shown) [Example 4, 4,8-Ethenopyrrolo[3',4':3,4]cyclobut[1,2-f]isoindole-1,3,5,7(2H,6H)-tetrone,3a,3b,4,4a,7a,8,8a,8b-octahydro-2,6-bis(N-methylpiperazinomethyl)di-hydrochloride] the “H2O Sol. % (g per 100 ml H2O)” value (Water solubility) was 10 % (g per 100 ml H2O), the ILS (L1210 leukemia [2]; [24]) was 2% and the MST (L1210 leukemia [2]; [24]) was 8.9 days. For the same compound, the “Wt. Change” value (L1210 leukemia [2]; [24]) was 2.5 g, the ILS (L1210 leukemia [2]; [25]) was 5% and the MST (L1210 leukemia [2]; [25]) was 8.4 days. For the same compound, the “Wt. Change” value (L1210 leukemia [2]; [25]) was 0.8 g, the ILS (L1210 leukemia [2]; [26]) was 9% and the MST (L1210 leukemia [2]; [26]) was 9.0 days. For the same compound, the “Wt. Change” value (L1210 leukemia [2]; [26]) was 0.3 g, the ILS (L1210 leukemia [2]; [27]) was 24% and the MST (L1210 leukemia [2]; [27]) was 10.8 days. For the same compound, the “Wt. Change” value (L1210 leukemia [2]; [27]) was 1.4 g, the ILS (L1210 leukemia [2]; [28]) was 47% and the MST (L1210 leukemia [2]; [28]) was 11.8 days. For the same compound, the “Wt. Change” value (L1210 leukemia [2]; [28]) was -2.6 g, the ILS (L1210 leukemia [2]; [29]) was 34% and the MST (L1210 leukemia [2]; [29]) was 11.0 days. The “Wt. Change” value (L1210 leukemia [2]; [29]) was -1.5 g, the ILS (L1210 leukemia [2]; [30]) was 83% and the MST (L1210 leukemia [2]; [30]) was 16.0 days. The “Wt. Change” value (L1210 leukemia [2]; [30]) was -1.7 g, the ILS (L1210 leukemia [2]; [31]) was 78% and the MST (L1210 leukemia [2]; [31]) was 14.3 days. The “Wt. Change” value (L1210 leukemia [2]; [31]) was -4.1 g, the ILS (L1210 leukemia [2]; [32]) was 119% and the MST (L1210 leukemia [2]; [32]) was 18.0 days. The “Wt. Change” value (L1210 leukemia [2]; [32]) was -3.2 g, the ILS (L1210 leukemia [2]; [33]) was 3% and the MST (L1210 leukemia [2]; [33]) was 9.0 days. The “Wt. Change” value (L1210 leukemia [2]; [33]) was -2.6 g, the ILS (L1210 leukemia [2]; [34]) was 110% and the MST (L1210 leukemia [2]; [34]) was 16.8 days. The “Wt. Change” value (L1210 leukemia [2]; [34]) was -5.3 g, the ILS (L1210 leukemia [2]; [35]) was 143% and the MST (L1210 leukemia [2]; [35]) was 20.0 days. The “Wt. Change” value (L1210 leukemia [2]; [35]) was -4.6 g, the “Wt. Change” value (L1210 leukemia [2]; 191.2 mg/kg IP days 1-9, Expt. 3) was -7.1 g and the ILS (L1210 leukemia [4]; [36]) was 18%. For the same compound, the MST (L1210 leukemia [4]; [36]) was 9.7 days, the “Wt. Change” value (L1210 leukemia [4]; [36]) was -0.2 g and the ILS (L1210 leukemia [4]; [37]) was 12%. The MST (L1210 leukemia [4]; [37]) was 12.0 days, the “Wt. Change” value (L1210 leukemia [4]; [37]) was 0.3 g and the ILS (L1210 leukemia [4]; [38]) was 50%. For the same compound, the MST (L1210 leukemia [4]; [38]) was 12.3 days, the “Wt. Change” value (L1210 leukemia [4]; [38]) was -1.6 g and the ILS (L1210 leukemia [4]; [39]) was 21%. The MST (L1210 leukemia [4]; [39]) was 13.0 days, the “Wt. Change” value (L1210 leukemia [4]; [39]) was -1.5 g and the ILS (L1210 leukemia [4]; [40]) was 74%. The MST (L1210 leukemia [4]; [40]) was 14.3 days, the “Wt. Change” value (L1210 leukemia [4]; [40]) was -4.2 g and the ILS (L1210 leukemia [4]; [41]) was 58%. For the same compound, the MST (L1210 leukemia [4]; [41]) was 17.0 days, the “Wt. Change” value (L1210 leukemia [4]; [41]) was -2.9 g and the ILS (L1210 leukemia [4]; [42]) was 135%. The MST (L1210 leukemia [4]; [42]) was 19.3 days, the “Wt. Change” value (L1210 leukemia [4]; [42]) was -4.7 g and the “Wt. Change” value (L1210 leukemia [4]; 114.7 mg/kg ip days 1-9, Expt. 2) was -4.0 g. The “Wt. Change” value (L1210 leukemia [4]; 191.2 mg/kg ip days 1-9, Expt. 2) was -6.6 g and the T/C (P388) was 172.
